Results reported in patent US6835695B2, “Herbicidal Compositions” (Aventis CropScience GmbH, priority 2000, dated 2004).

Tested on: monocotyledonous and dicotyledonous weed plants
Experiment: Post-emergence greenhouse test, herbicidal action scored visually (weeds not split)
Assay type: in vivo
Details: with Genapol X 150, X 200, O 200 or Sapogenat T130, T 200, T 300, T 400, T 500 at e.g. 50, 100, 300, 500 g/ha, vs no surfactant or low-EO surfactant (Genapol O 060, Sapogenat T 040)
Procedure: Seeds or rhizome pieces of monocotyledonous and dicotyledonous weed plants were placed in sandy loamy soil in plastic pots, covered with soil and grown in the greenhouse under favorable growth conditions. Three weeks after sowing, the test plants were treated in the three-leaf stage. The compounds according to the invention which were formulated in the form of wettable powders or emulsion concentrates were sprayed onto the green plant parts at an application rate of 600 to 800 l of water/ha (converted), in various dosages. After the test plants had been left to stand in the greenhouse under optimum growth conditions for 3 to 4 weeks the effect of the preparations was scored visually by comparison with untreated controls.

SMILES	action of the herbicide when combined with a high-EO surfactant (herbicide 200 g/ha)	action of the herbicide when combined with a high-EO surfactant (herbicide 80 g/ha)
CS(=O)(=O)c1ccc(C(=O)C2C(=O)CCCC2=O)c([N+](=O)[O-])c1 [Herbicide A1]	increased markedly	
CCS(=O)(=O)c1ccc(C(=O)C2C(=O)CCCC2=O)c(Cl)c1C1=NOC(CC#N)C1 (stereo not shown) [Herbicide A4]		increased markedly
CCOCC1CC(c2c(S(=O)(=O)CC)ccc(C(=O)C3C(=O)CCCC3=O)c2Cl)=NO1 (stereo not shown) [Herbicide A6]		increased markedly
CS(=O)(=O)c1ccc(C(=O)C2C(=O)CCCC2=O)c(Cl)c1COCC(F)(F)F [Herbicide A9]		increased markedly
